Laboratory results as given in patent US11344564B1, “Method of treatment based on reduced monoamine oxidase a activity” (Lennham Pharmaceuticals, Inc., priority 2021, dated 2022).

Key:
human MAO-A = molecular target: T1, human MAO-A (Homo sapiens, UniProt P21397); test: in vitro metabolism of psilocin by human MAO-A; type: in vitro ADME; settings: test compound 0.2 and 2 μM; protein 0.03, 0.1, 0.3 and 1 mg/ml; incubation 0-30 min, 37° C., pH 7.4, no cofactors (FIGS. 1A & 1B)
T1 sequence (P21397 1-527): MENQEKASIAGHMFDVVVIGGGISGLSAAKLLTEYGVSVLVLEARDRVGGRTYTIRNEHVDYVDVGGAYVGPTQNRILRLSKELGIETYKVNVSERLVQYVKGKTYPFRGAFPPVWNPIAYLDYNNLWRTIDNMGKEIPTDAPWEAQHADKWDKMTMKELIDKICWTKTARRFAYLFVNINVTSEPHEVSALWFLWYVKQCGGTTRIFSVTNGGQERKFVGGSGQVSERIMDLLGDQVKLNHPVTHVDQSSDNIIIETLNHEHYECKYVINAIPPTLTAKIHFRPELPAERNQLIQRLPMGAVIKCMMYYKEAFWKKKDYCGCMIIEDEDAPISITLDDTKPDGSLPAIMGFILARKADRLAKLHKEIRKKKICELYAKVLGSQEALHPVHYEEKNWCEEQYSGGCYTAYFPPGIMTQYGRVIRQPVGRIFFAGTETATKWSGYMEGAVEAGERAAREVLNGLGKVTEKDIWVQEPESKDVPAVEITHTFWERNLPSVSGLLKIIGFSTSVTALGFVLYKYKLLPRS

human MAO-B = molecular target: T2, human MAO-B (Homo sapiens, UniProt P27338); test: in vitro metabolism of psilocin by human MAO-B; type: in vitro ADME; settings: test compound 0.2 and 2 μM; protein 0.03, 0.1, 0.3 and 1 mg/ml; incubation 0-30 min, 37° C., pH 7.4, no cofactors (FIGS. 1C & 1D)
T2 sequence (P27338 1-520): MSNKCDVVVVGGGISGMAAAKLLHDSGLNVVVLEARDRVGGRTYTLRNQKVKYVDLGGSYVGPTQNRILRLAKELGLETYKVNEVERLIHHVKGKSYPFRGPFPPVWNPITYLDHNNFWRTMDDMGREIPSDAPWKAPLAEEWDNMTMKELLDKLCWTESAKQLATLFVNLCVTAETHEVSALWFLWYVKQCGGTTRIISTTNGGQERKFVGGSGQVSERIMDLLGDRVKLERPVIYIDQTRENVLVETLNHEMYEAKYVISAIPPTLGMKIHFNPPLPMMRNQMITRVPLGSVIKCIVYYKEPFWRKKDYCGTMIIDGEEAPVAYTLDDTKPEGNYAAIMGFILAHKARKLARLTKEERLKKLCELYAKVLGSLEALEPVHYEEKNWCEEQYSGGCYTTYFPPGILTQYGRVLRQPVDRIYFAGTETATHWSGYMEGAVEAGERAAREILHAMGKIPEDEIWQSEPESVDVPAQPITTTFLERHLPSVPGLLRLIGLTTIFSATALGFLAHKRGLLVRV

CN(C)CCc1c[nH]c2cccc(O)c12 [psilocin, 4-hydroxy-N,N-dimethyltryptamine]
metabolism by human MAO-A (human MAO-A): is metabolized by human MAO-A
metabolism by human MAO-B (human MAO-B): not human MAO-B
